Active and inactive are the calls of the source. The calls are words filed in the database; no cut-off is given here.
Experiments:
[1] = Toxicity in female BALB/c mouse xenografted with human MCF7 cells assessed as effect on kidney histology at 5 mg/kg, iv measured after 14 days by H and E staining based analysis; assay type: organism-based; details: in vivo, 336 h, time 14 day
MCF7 [2] = assay: Photothermal effect in human MCF7 cells assessed as temperature of cell culture medium at 1 uM irradiated with 660 nm 0.4 W/cm2 light for 1 min (reference value: 26 degreeC); assay type: ADME, cell-based; details: mcf7, 1 min
in vivo [3] = details: Sprague-Dawley, rat, po, 15 mg/kg
Description: Cmax in Sprague-Dawley rat at 15 mg/kg, po administered via gavage and measured after 0.5 to 168 hrs by LC-MS analysis

MCF7 [4] = assay: Induction of ROS generation in human MCF7 cells assessed as cell percentage with elevated ROS incubated for 6 hrs followed by irradiation with 660 nm 0.4 W/cm2 light for 5 min by DCFH-DA probe based flow cytometric analysis; assay type: functional; details: dose 0.1-5 µM, time 365.0 min
[5] = Toxicity in female BALB/c mouse xenografted with human MCF7 cells assessed as change in body weight at 5 mg/kg, iv measured after 14 days; assay type: organism-based; details: in vivo, 336 h, time 14 day
MCF7 [6] = assay: Induction of ROS generation in human MCF7 cells assessed as cell percentage with elevated ROS at 1 uM incubated for 6 hrs followed by irradiation with 660 nm 0.4 W/cm2 light for 4 min by DCFH-DA probe based flow cytometric analysis (reference value: 0.2 %); assay type: functional; details: time 364 min, 6.067 h
MCF7 [7] = assay: Antitumor activity against human MCF7 cells xenografted in female BALB/c mouse model assessed as damage in tumor tissue at 5 mg/kg, iv measured after 14 days with 660 nm 0.4 W/cm2 light irradiation for 5 mins at 4 hrs of incubation time by H and E staining based analysis; assay type: functional, organism-based; details: time 14.0 day
[8] = Toxicity in female BALB/c mouse xenografted with human MCF7 cells assessed as change in hemoglobin level at 5 mg/kg, iv measured after 14 days; assay type: organism-based; details: in vivo, 336 h, time 14 day
in vivo [9] = details: Sprague-Dawley, rat, iv, 5 mg/kg
Description: AUC (0 to infinity) in Sprague-Dawley rat at 5 mg/kg, iv measured after 0.5 to 168 hrs by LC-MS analysis

[10] = Toxicity in female BALB/c mouse xenografted with human MCF7 cells assessed as change in ALT level at 5 mg/kg, iv measured after 14 days with 660 nm 0.4 W/cm2 light irradiation for 5 mins at 4 hrs of incubation time; assay type: organism-based; details: in vivo, 336 h, time 14 day
[11] = Toxicity in female BALB/c mouse xenografted with human MCF7 cells assessed as change in blood urea nitrogen level at 5 mg/kg, iv measured after 14 days; assay type: organism-based; details: in vivo, 336 h, time 14 day
MCF7 [12] = assay: Induction of ROS generation in human MCF7 cells assessed as cell percentage with elevated ROS at 1 uM incubated for 6 hrs followed by irradiation with 660 nm 0.4 W/cm2 light for 1 min by DCFH-DA probe based flow cytometric analysis (reference value: 0.2 %); assay type: functional; details: time 361 min, 6.017 h
MCF7 [13] = assay: cells; details: Homo sapiens, MCF7, light or radiation study
Description: Antiproliferative activity against human MCF7 cells assessed as inhibition of cell proliferation incubated for 48 hrs with 660 nm 0.4 W/cm2 light irradiation for 1 min at 6th hr of incubation time by MTT assay

MCF7 [14] = assay: Induction of ROS generation in human MCF7 cells assessed as cell percentage with elevated ROS at 1 uM incubated for 6 hrs followed by irradiation with 660 nm 0.4 W/cm2 light for 2 min by DCFH-DA probe based flow cytometric analysis (reference value: 0.2 %); assay type: functional; details: time 362 min, 6.033 h
MCF7 [15] = assay: Antitumor activity against human MCF7 cells xenografted in female BALB/c mouse model assessed as tumor regression at 5 mg/kg, iv measured after 14 days with 660 nm 0.4 W/cm2 light irradiation for 5 mins at 4 hrs of incubation time (reference value: 122.9 mm3); assay type: functional; details: time 14 day
[16] = Toxicity in female BALB/c mouse xenografted with human MCF7 cells assessed as change in lymphocytes level at 5 mg/kg, iv measured after 14 days; assay type: organism-based; details: in vivo, 336 h, time 14 day
MCF7 [17] = assay: Antitumor activity against human MCF7 cells xenografted in female BALB/c mouse model assessed as tumor growth inhibition at 5 mg/kg, iv measured after 14 days relative to control; assay type: functional; details: MCF7, 336 h, time 14 day, read-out: TGI
[18] = Toxicity in female BALB/c mouse xenografted with human MCF7 cells assessed as effect on lung histology at 5 mg/kg, iv measured after 14 days by H and E staining based analysis; assay type: organism-based; details: in vivo, 336 h, time 14 day
[19] = Drug uptake in human MCF7 cell cytoplasm assessed as increase in red fluorescence at 1 uM incubated for 6 hrs by fluorescence imaging analysis; assay type: ADME, subcellular; details: mcf7, 6 h
[20] = Induction of ROS generation in water at 1 uM irradiated with 660 nm 0.4 W/cm2 light up to 180 sec by DCFH probe based fluorescence spectra analysis; assay type: functional
MCF7 [21] = assay: Photothermal effect in human MCF7 cells assessed as temperature of cell culture medium at 1 uM irradiated with 660 nm 0.4 W/cm2 light for 5 min (reference value: 26 degreeC); assay type: ADME, cell-based; details: mcf7, 5 min
[22] = Toxicity in female BALB/c mouse xenografted with human MCF7 cells assessed as change in platelet level at 5 mg/kg, iv measured after 14 days; assay type: organism-based; details: in vivo, 336 h, time 14 day
MCF7 [23] = assay: Induction of ROS generation in human MCF7 cells assessed as increase in green fluorescence at 1 uM incubated for 6 hrs followed by irradiation with 660 nm 0.4 W/cm2 light for 5 min by fluorescence imaging analysis; assay type: functional, cell-based; details: time 365.0 min
[24] = Toxicity in female BALB/c mouse xenografted with human MCF7 cells assessed as change in ALT level at 5 mg/kg, iv measured after 14 days; assay type: organism-based; details: in vivo, 336 h, time 14 day

CCN(CC)c1ccc2nc3c4ccccc4/c(=N\CCCCCCC(=O)NCCOc4ccc(C(=O)c5c(-c6ccc(O)cc6)sc6cc(O)ccc56)cc4)cc-3sc2c1
Activity [1]: Non-toxic
T (MCF7 [2]): 27.3 °C
Cmax (in vivo [3]): 17.5 ng/mL
Activity (MCF7 [4]): Dose-dependent-effect
Activity [5]: Non-toxic
Activity (MCF7 [6]): 47.8%
Activity (MCF7 [7]): Active
Activity [8]: Non-toxic
AUC(0-inf) (in vivo [9]): 279 ng·h/mL
Activity [10]: Non-toxic
Activity [11]: Non-toxic
Activity (MCF7 [12]): 5.5%
IC50 (MCF7 [13]): 550 nM
Activity (MCF7 [14]): 6.5%
Activity (MCF7 [15]): 45.3 mm3
Activity [16]: Non-toxic
inhibition in vivo at 5 mg/kg (MCF7 [17]): 77.5%
Activity [18]: Non-toxic
Drug uptake [19]: Active
Activity [20]: Active
T (MCF7 [21]): 32.5 °C
Activity [22]: Non-toxic
Activity (MCF7 [23]): Active
Activity [24]: Non-toxic

Source: ChEMBL document CHEMBL6134865, “Rational Design of Methylene Blue-Raloxifene Conjugates for Efficient Breast Tumor Elimination Triggered by ERα Degradation” (J Med Chem, 2025)
